Laboratory results reported in US11970474B2, “Substituted benzodiazoles and use thereof in therapy” (THOMAS HELLEDAYS STIFTELSE FÖR MEDICINSK FORSKNING, priority 2018, dated 2024).

Tests used:
OGG1 = OGG1 (Homo sapiens (Human), UniProt O15527); assay: In vitro OGG1 activity assay; format: biochemical; conditions: 800 pM OGG1 enzyme, 2 nM human APEX1, 10 nM 8-oxoA:C substrate
Outline: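 Fluorescence-release assay on a duplex oligonucleotide carrying an OGG1 substrate base beside a fluorophore, quenched from the complementary strand. Excess APEX1 cleaves the abasic site left by base excision, melting the duplex and unquenching the fluorophore. Compounds in DMSO were dispensed before enzyme and substrate, and fluorescein signal was read.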

MEF Ogg1 (−/−) = assay: Cell viability assay (resazurin); format: cell-based; conditions: 120 h, Normal, mouse embryonic fibroblast, five day incubation
Protocol: A dilution series of compound or vehicle are transferred to 96-well plates. Cells are seeded into the plate (500-10,000 cells/well) in suitable media and incubated for five days in 5% CO2 at 37° C.
The compounds to be tested are nano-dispensed in duplicate in 11 concentrations, directly in 384-well cell plates, with a final DMSO concentration<1%.

MLE-12 cells = assay: Pro-inflammatory gene regulation induced by TNFα; format: cell-based, mouse; conditions: 20 ng/ml TNFα, 5 μM compound
Protocol: MLE-12 cells are maintained in suitable medium and treated with vehicle or 5 μM experimental compound for 48 h before stimulation with 20 ng/ml TNFα for 30 minutes. RNA is extracted and reverse-transcribed, followed by quantitative PCR evaluation of a panel of pro-inflammatory regulators (SABiosciences) essentially as described in Ba, Xueqing, et al., The Journal of Immunology, 192(5), 2384-94 (2014).

ACHN = assay: Colony formation survival assay; format: cell-based; conditions: cancer cell line ACHN; 7-11 days
Protocol: (§1) Example compounds or vehicle are transferred to 6-well plates. Cell lines to be tested are seeded at a density of 200-500 cells/well in suitable media and allowed to grow for 7-11 days in at 5% CO2, 37° C. The medium is removed and replaced with 4% w/v methylene blue in methanol. Following extensive washes in tap water and air drying, […] with more than 50 […] are counted, as described in Franken, Nicolaas A. P., et al., Nature Protocols, 1(5), 2315-19 (2006).

H460 = assay: Colony formation survival assay; format: cell-based; conditions: cancer cell line H460; 7-11 days
Protocol: as §1

BALB/c mice = assay: Recruitment of neutrophils to mouse airways; format: in vivo; conditions: 25 mg/kg intraperitoneally; intranasal TNFα or lipopolysaccharide; lungs lavaged after 16 h
Protocol: Six- to 8-wk-old BALB/c mice (˜20 g; Harlan Sprague Dawley, San Diego, CA) were injected 25 mg/kg intraperitoneally 3 h before and at the time of intranasal TNF-α challenge essentially as described in Ba, Xueqing, et al., The Journal of Immunology, 192(5), 2384-94 (2014). To evaluate inflammation, bronchoalveolar lavage fluids (BALF) were collected 16 h after challenge, processed, cytospin slides were stained with Wright-Giemsa, and the number of neutrophils was counted. All experiments were performed according to the National Institutes of Health Guidelines for the Care and Use of Laboratory Animals.

Hec59 + Chr2 = assay: Cell viability assay (resazurin); format: cell-based; conditions: 120 h, Cancer, endometrioid adenocarcinoma, five day incubation
Protocol: (§2) A dilution series of compound or vehicle are transferred to 96-well plates. Cells are seeded into the plate (500-10,000 cells/well) in suitable media and incubated for five days in 5% CO2 at 37° C. Thereafter, resazurin (diluted in suitable medium or PBS) are added to a final concentration 10 μg/ml resazurin at 37° C. for 2-4 hours before measuring the fluorescence (Ex544/Em590), essentially as described (Riss, Terry L. et al., “Cell Viability Assays.” In Assay Guidance Manual, ed. G. Sitta Sittampalam, et al. Bethesda (Md.): Eli Lilly & Company and the National Center for Advancing Translational Sciences (2004) http://www.ncbi.nlm.nih.gov/books/NBK144065/).
(§3) The compounds to be tested are nano-dispensed in duplicate in 11 concentrations, directly in 384-well cell plates, with a final DMSO concentration<1%. Cells are seeded in cell plates, pre-dispensed with compounds (200-2500 cells/well in 50 μl). After three or five days culture in 5% CO2, 37° C., resazurin diluted in PBS is added, 10 μl/well, to a final concentration of 10 μg/ml and cells are incubated 2-4 hours before measuring fluorescence (Ex544/Em590), as described (ibid.). Results obtained for selected example compounds described herein on cancer- and non-transformed cell lines are provided in the table below (Table 3) and summarized in FIG. 1. Where indicated, combination indexes was measured with CompuSyn software (www.compusyn.com) by the method of Chou-Talalay (Chou, Ting-Chao., Cancer Research, 70(2), 440-46 (2010)).

SW1271 = assay: Cell viability assay (resazurin); format: cell-based; conditions: 120 h, Cancer, Small Cell Lung Carcinoma, five day incubation
Protocol: as §2, §3

NB-4 = assay: Cell viability assay (resazurin); format: cell-based; conditions: Homo sapiens, 120 h, Cancer, acute promyelocytic leukemia, five day incubation
Protocol: as §2, §3

THP1 = assay: Cell viability assay (resazurin); format: cell-based; conditions: Homo sapiens, THP-1, 120 h, Cancer, Acute Monocytic Leukemia, five day incubation
Protocol: as §2, §3

K562 = assay: Cell viability assay (resazurin); format: cell-based; conditions: Homo sapiens, 120 h, Cancer, Chronic Myelogenous Leukemia, five day incubation
Protocol: as §2, §3

Hec59 = assay: Cell viability assay (resazurin); format: cell-based; conditions: 120 h, Cancer, endometrioid adenocarcinoma, five day incubation
Protocol: as §2, §3

Sequence of OGG1 (O15527 whole entry): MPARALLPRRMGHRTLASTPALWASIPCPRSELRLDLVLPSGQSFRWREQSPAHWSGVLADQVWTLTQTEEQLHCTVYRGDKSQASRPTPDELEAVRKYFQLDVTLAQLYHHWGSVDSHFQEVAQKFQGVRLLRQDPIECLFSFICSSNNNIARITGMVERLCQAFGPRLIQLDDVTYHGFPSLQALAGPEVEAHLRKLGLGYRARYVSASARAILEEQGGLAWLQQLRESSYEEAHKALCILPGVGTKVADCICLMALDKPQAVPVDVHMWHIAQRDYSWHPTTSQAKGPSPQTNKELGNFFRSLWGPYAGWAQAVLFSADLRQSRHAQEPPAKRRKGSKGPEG

IC50 (OGG1) | SMILES | EC50 (MEF Ogg1 (−/−)) | pro-inflammatory gene regulation induced by the cytokine TNFα (MLE-12 cells) | colony formation (ACHN) | colony formation (H460) | recruitment of neutrophils to mouse airways (BALB/c mice) | EC50 (Hec59 + Chr2) | EC50 (SW1271) | EC50 (NB-4) | EC50 (THP1) | EC50 (K562) | EC50 (Hec59)
0.766 µM | O=C(Nc1ccc(Cl)c(Cl)c1)N1CCC(n2c(=O)[nH]c3c(-c4ccc(CO)nc4)cccc32)CC1 [Example 28, N-(3,4-dichlorophenyl)-4-{4-[6-(hydroxymethyl)pyridin-3-yl]-2-oxo-2,3-dihydro-1H-1,3-benzodiazol-1-yl}piperidine-1-carboxamide] | 46 µM | – | – | – | – | 17 µM | 25 µM | 11 µM | 19 µM | 21 µM | 11 µM
0.149 µM | Cc1cc(NC(=O)N2CCC(n3c(=O)[nH]c4c(Br)cccc43)CC2)ccc1I [Example 50, 4-(4-Bromo-2-oxo-2,3-dihydro-1H-1,3-benzodiazol-1-yl)-N-(4-iodo-3-methylphenyl)piperidine-1-carboxamide] | 34 µM | – | – | – | – | – | – | – | – | – | –

SMILES | IC50 (OGG1) | EC50 (MEF Ogg1 (−/−)) | pro-inflammatory gene regulation induced by the cytokine TNFα (MLE-12 cells) | colony formation (ACHN) | colony formation (H460) | recruitment of neutrophils to mouse airways (BALB/c mice) | EC50 (Hec59 + Chr2) | EC50 (SW1271) | EC50 (NB-4) | EC50 (THP1) | EC50 (K562) | EC50 (Hec59)
O=C(Nc1ccc(I)cc1)N1CCC(n2c(=O)[nH]c3c(Br)cccc32)CC1 [Example 13, 4-(4-Bromo-2-oxo-2,3-dihydro-1H-1,3-benzodiazol-1-yl)-N-(4-iodophenyl)piperidine-1-carboxamide] | 0.359 µM | 48 µM | reduces pro-inflammatory gene regulation | inhibits colony formation | inhibits colony formation | reduces recruitment of neutrophils | 16 µM | 22 µM | 5 µM | 23 µM | 20 µM | 17 µM
